Patent US9833497B2, “Human originated EGF domain proteins and use of the same” (CHENGDU SOURCEBIO LIMITED-LIABILITY COMPANY, priority 2013, dated 2017)

Tests used:
Type in all cases: cell-based
E. coli DH5α = assay: Antibacterial activity: MIC and growth curve against E. coli DH5α in 96-well plate; conditions: minimal inhibitory concentration against E. coli DH5α; 96-well plate, 5×10^5 CFU/mL, 37° C., judged after 8 h
In short: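 MIC taken as lowest protein level with no bacterial growth, tracked by A600 every 30 min during 37 °C, 175 rpm culture. Two-fold protein series 50-12.5 μg/mL final, triplicate wells, against 5×10^5 CFU/mL of LB-washed mid-log cells.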

E. coli BL21 = assay: MIC against Gram-negative bacteria: E. coli BL21; conditions: for MIC E. coli BL21 / MIC against E. coli BL21: 5×10^5 CFU/mL
In short: (§1)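 First, colonies from LB agar were grown in LB at 37° C, 185 rpm, to McFarland turbidity 0.5, then centrifuged and resuspended in fresh LB. Next, wells received 5×10^5 CFU/mL bacteria plus two-fold serially diluted EGF domain protein (triplicate). Finally, plates were shaken at 37° C and the no-growth concentration taken as MIC.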

Pseudomonas aeruginosa = assay: MIC against Gram-negative bacteria: Pseudomonas aeruginosa; conditions: for MIC: P. aeruginosa; for MIC P. aeruginosa / MIC against P. aeruginosa: 5×10^5 CFU/mL
In short: as §1

Klebsiella pneumonia = assay: MIC against Gram-negative bacteria: Klebsiella pneumonia; conditions: for MIC: K. pneumonia; for MIC K. pneumonia / MIC against K. pneumonia: 5×10^5 CFU/mL
In short: as §1

Enterobacter cloacae = assay: MIC against Gram-negative bacteria: Enterobacter cloacae; conditions: for MIC: E. cloacae; for MIC E. cloacae / MIC against E. cloacae: 5×10^5 CFU/mL
In short: as §1

Aeromonas hydrophila = assay: MIC against Gram-negative bacteria: Aeromonas hydrophila; conditions: for MIC: A. hydrophila; for MIC A. hydrophila / MIC against A. hydrophila: 5×10^5 CFU/mL
In short: as §1

Citrobacter diversus = assay: MIC against Gram-negative bacteria: Citrobacter diversus; conditions: for MIC: C. diversus; for MIC C. diversus / MIC against C. diversus: 5×10^5 CFU/mL
In short: as §1

Moraxella catarrhalis = assay: MIC against Gram-negative bacteria: Moraxella catarrhalis; conditions: for MIC: M. catarrhalis; for MIC M. catarrhalis / MIC against M. catarrhalis: 5×10^5 CFU/mL
In short: as §1

Proteus mirabilis = assay: MIC against Gram-negative bacteria: Proteus mirabilis; conditions: for MIC: P. mirabilis; for MIC P. mirabilis / MIC against P. mirabilis: 5×10^5 CFU/mL
In short: as §1

Proteus vulgaris = assay: MIC against Gram-negative bacteria: Proteus vulgaris; conditions: for MIC: P. vulgaris; for MIC P. vulgaris / MIC against P. vulgaris: 5×10^5 CFU/mL
In short: as §1

Serratia marcescens = assay: MIC against Gram-negative bacteria: Serratia marcescens; conditions: for MIC: S. marcescens; for MIC S. marcescens / MIC against S. marcescens: 5×10^5 CFU/mL
In short: as §1

[1] = E. coli BL21, 10 h cultivation at 37° C.
[2] = 10 h cultivation at 37° C., two-fold serial dilution
[3] = E. coli BL21, 96-well plate, 37° C., 10 h
[4] = Pseudomonas aeruginosa, 96-well plate, 37° C., 10 h
[5] = Klebsiella pneumonia, 96-well plate, 37° C., 10 h
[6] = Enterobacter cloacae, 96-well plate, 37° C., 10 h
[7] = Aeromonas hydrophila, 96-well plate, 37° C., 10 h
[8] = Citrobacter diversus, 96-well plate, 37° C., 10 h
[9] = Moraxella catarrhalis, 96-well plate, 37° C., 10 h
[10] = Proteus mirabilis, 96-well plate, 37° C., 10 h
[11] = Proteus vulgaris, 96-well plate, 37° C., 10 h
[12] = Serratia marcescens, 96-well plate, 37° C., 10 h

PRT914 (DARTCGSLRCLNGGTCISGPRSPTCLCLGPFTGPECQ; listed as Homo sapiens)
MIC (E. coli DH5α): 12.5 µg/mL | MIC (E. coli BL21; [1]): 25 µg/mL | MIC (Pseudomonas aeruginosa; 10 h cultivation at 37° C.): 12.5 µg/mL | MIC (Klebsiella pneumonia; 10 h cultivation at 37° C.): 12.5 µg/mL | MIC (Enterobacter cloacae; 10 h cultivation at 37° C.): 25 µg/mL | MIC (Aeromonas hydrophila; 10 h cultivation at 37° C.): 12.5 µg/mL | MIC (Citrobacter diversus; 10 h cultivation at 37° C.): 12.5 µg/mL | MIC (Moraxella catarrhalis; 10 h cultivation at 37° C.): 12.5 µg/mL | MIC (Proteus mirabilis; 10 h cultivation at 37° C.): 12.5 µg/mL | MIC (Proteus vulgaris; 10 h cultivation at 37° C.): 12.5 µg/mL | MIC (Serratia marcescens; 10 h cultivation at 37° C.): 12.5 µg/mL

PRT604 (CPCNRFAELCDPETGSCFNCGGFTTGRNCERCIDGYYGNPSSGQPCRP; listed as Homo sapiens)
MIC (E. coli DH5α): 50 µg/mL | MIC E. coli BL21 (E. coli BL21; 96-well plate, 37° C., 10 h): 12.5 µg/mL | MIC P. aeruginosa (Pseudomonas aeruginosa; 96-well plate, 37° C., 10 h): 25 µg/mL | MIC K. pneumonia (Klebsiella pneumonia; 96-well plate, 37° C., 10 h): 50 µg/mL | MIC E. cloacae (Enterobacter cloacae; 96-well plate, 37° C., 10 h): 25 µg/mL | MIC A. hydrophila (Aeromonas hydrophila; 96-well plate, 37° C., 10 h): 12.5 µg/mL | MIC C. diversus (Citrobacter diversus; 96-well plate, 37° C., 10 h): 25 µg/mL | MIC M. catarrhalis (Moraxella catarrhalis; 96-well plate, 37° C., 10 h): 12.5 µg/mL | MIC P. mirabilis (Proteus mirabilis; 96-well plate, 37° C., 10 h): 25 µg/mL | MIC P. vulgaris (Proteus vulgaris; 96-well plate, 37° C., 10 h): 12.5 µg/mL | MIC S. marcescens (Serratia marcescens; 96-well plate, 37° C., 10 h): 25 µg/mL

PRT532 (CWCSALGSYQMPCSSVTGQCECRPGVTGQRCDRCLSGAYDFPHCQGSSSACDP; listed as Homo sapiens)
MIC (E. coli DH5α): 12.5 µg/mL | MIC against E. coli BL21 (E. coli BL21; 96-well plate, 37° C., 10 h): 50 µg/mL | MIC against P. aeruginosa (Pseudomonas aeruginosa; 96-well plate, 37° C., 10 h): 12.5 µg/mL | MIC against K. pneumonia (Klebsiella pneumonia; 96-well plate, 37° C., 10 h): 12.5 µg/mL | MIC against E. cloacae (Enterobacter cloacae; 96-well plate, 37° C., 10 h): 12.5 µg/mL | MIC against A. hydrophila (Aeromonas hydrophila; 96-well plate, 37° C., 10 h): 12.5 µg/mL | MIC against C. diversus (Citrobacter diversus; 96-well plate, 37° C., 10 h): 12.5 µg/mL | MIC against M. catarrhalis (Moraxella catarrhalis; 96-well plate, 37° C., 10 h): 50 µg/mL | MIC against P. mirabilis (Proteus mirabilis; 96-well plate, 37° C., 10 h): 12.5 µg/mL | MIC against P. vulgaris (Proteus vulgaris; 96-well plate, 37° C., 10 h): 50 µg/mL | MIC against S. marcescens (Serratia marcescens; 96-well plate, 37° C., 10 h): 12.5 µg/mL

PRT1113 (HVDPCHSAPCARGRCHTHPDGRFECRCPPGFGGPRCR; listed as Homo sapiens)
MIC (E. coli DH5α): 12.5 µg/mL | MIC E. coli BL21 (E. coli BL21; [2]): 12.5 µg/mL | MIC P. aeruginosa (Pseudomonas aeruginosa; [2]): 12.5 µg/mL | MIC K. pneumonia (Klebsiella pneumonia; [2]): 12.5 µg/mL | MIC E. cloacae (Enterobacter cloacae; [2]): 12.5 µg/mL | MIC A. hydrophila (Aeromonas hydrophila; [2]): 12.5 µg/mL | MIC C. diversus (Citrobacter diversus; [2]): 50 µg/mL | MIC M. catarrhalis (Moraxella catarrhalis; [2]): 12.5 µg/mL | MIC P. mirabilis (Proteus mirabilis; [2]): 25 µg/mL | MIC P. vulgaris (Proteus vulgaris; [2]): 50 µg/mL | MIC S. marcescens (Serratia marcescens; [2]): 25 µg/mL

PRT1333 (PIPECAALLCPENSRCSPSTEDENKLECKCLPNYRGDGKYCD; listed as Homo sapiens)
MIC (E. coli DH5α): 25 µg/mL | MIC against E. coli BL21 (E. coli BL21; [3]): 12.5 µg/mL | MIC against P. aeruginosa (Pseudomonas aeruginosa; [4]): 25 µg/mL | MIC against K. pneumonia (Klebsiella pneumonia; [5]): 25 µg/mL | MIC against E. cloacae (Enterobacter cloacae; [6]): 12.5 µg/mL | MIC against A. hydrophila (Aeromonas hydrophila; [7]): 25 µg/mL | MIC against C. diversus (Citrobacter diversus; [8]): 12.5 µg/mL | MIC against M. catarrhalis (Moraxella catarrhalis; [9]): 25 µg/mL | MIC against P. mirabilis (Proteus mirabilis; [10]): 12.5 µg/mL | MIC against P. vulgaris (Proteus vulgaris; [11]): 25 µg/mL | MIC against S. marcescens (Serratia marcescens; [12]): 12.5 µg/mL

PRT945 (QLDECASNPCQHGATCSDFIGGYRCECVPGYQGVNCE; listed as Homo sapiens)
MIC (E. coli DH5α): 25 µg/mL | MIC (E. coli BL21; [1]): 50 µg/mL | MIC (Pseudomonas aeruginosa; 10 h cultivation at 37° C.): 25 µg/mL | MIC (Klebsiella pneumonia; 10 h cultivation at 37° C.): 12.5 µg/mL | MIC (Enterobacter cloacae; 10 h cultivation at 37° C.): 25 µg/mL | MIC (Aeromonas hydrophila; 10 h cultivation at 37° C.): 50 µg/mL | MIC (Citrobacter diversus; 10 h cultivation at 37° C.): 12.5 µg/mL | MIC (Moraxella catarrhalis; 10 h cultivation at 37° C.): 25 µg/mL | MIC (Proteus mirabilis; 10 h cultivation at 37° C.): 50 µg/mL | MIC (Proteus vulgaris; 10 h cultivation at 37° C.): 12.5 µg/mL | MIC (Serratia marcescens; 10 h cultivation at 37° C.): 25 µg/mL

PRT1275 (EGMNCMNKNHGCAHICRETPKGGIACECRPGFELTKNQRDCK; listed as Homo sapiens)
MIC (E. coli DH5α): 12.5 µg/mL | MIC against E. coli BL21 (E. coli BL21; [3]): 50 µg/mL | MIC against P. aeruginosa (Pseudomonas aeruginosa; [4]): 12.5 µg/mL | MIC against K. pneumonia (Klebsiella pneumonia; [5]): 50 µg/mL | MIC against E. cloacae (Enterobacter cloacae; [6]): 12.5 µg/mL | MIC against A. hydrophila (Aeromonas hydrophila; [7]): 50 µg/mL | MIC against C. diversus (Citrobacter diversus; [8]): 50 µg/mL | MIC against M. catarrhalis (Moraxella catarrhalis; [9]): 12.5 µg/mL | MIC against P. mirabilis (Proteus mirabilis; [10]): 50 µg/mL | MIC against P. vulgaris (Proteus vulgaris; [11]): 25 µg/mL | MIC against S. marcescens (Serratia marcescens; [12]): 12.5 µg/mL
